The values below come from patent publication US10383838B2, “Concentrated liquid diet” (The Nisshin OilliO Group, Ltd., priority 2008, dated 2019).

Each structure is given as a SMILES string.

This data set has as its system gastric mucosa of rat. The data set is described as follows: Test for investigating irritation of gastric mucosa in rat. Type of data set: in vivo, Wistar rats. To be noted: oral after fasting 18 hrs, dose 2 g/kg BW, stomach observed 1 hour after administration.

Description: Five male 10-week old Wistar rats having a body weight of about 200 g (Japan SLC, Inc.) as one test group were subjected to tests by administration. […] The amount of the triglyceride administered was 2 g per kg of body weight. After placing at rest for 1 hour following the administration, an incision was made in the abdomen under anesthesia, and the stomach was extirpated. Then, the extirpated stomach was incised along the greater curvature, and the gastric mucosa was washed with physiological saline and visually observed, with use of a loupe as needed. It should be noted that evaluation in connection with the irritation of gastric mucosa was made in accordance with a method described in a document (Yakugaku Zasshi 89 (8): 1114-1118, 1978). The criteria of evaluation are shown below.
(−): Nine or less areas of patchy redness found.
(+): Ten or more areas of patchy redness found, and sum total of each length of erosion being no greater than 2 mm.
(++): Twenty or more areas of patchy redness found, and sum total of each length of erosion being no greater than 10 mm.
(+++): Sum total of each length of ulcer, or erosion being no less than 10 mm.
It is to be noted that when evaluation was made as (−), the number of areas of patchy redness was counted.

For `CCO` [Positive Control Group, ethanol], the “Irritation of gastric mucosa” value is listed as “(+++) (Sum total of each length of ulcer, or erosion being no less than 10 mm.)”.
